Patent US6767891B2, “Peptides with wound healing activity” (priority 2000, dated 2004)
Where no end group is shown, it is not given here.

Key:
[1] = tested on: ulcerations of fingers secondary to burns, diabetes mellitus; assay: Clinical course of Patient 2, finger ulcerations; format: in vivo, human
Experimental: The glucose levels of the patient were not kept under control. The patient developed heat burns with blistering and erosions on the patient's fingers. The ulcers are cleansed and Silvadene cream is used for wound healing, which usually takes 2-4 weeks. Occasionally, systematic antibiotics are given.
The patient was seen after having burned the distal phalanx of the left middle finger with a hairdryer 10 days before. The patient had taken some leftover Ceftin 250 mg twice daily and has used Silvadene cream twice daily for the 10 days, but the ulcer would not heal. The ulcer was debrided and the patient was given a preparation containing TA5 to use on the ulcer base twice daily. This ulcer was on the lateral thenar side of the left middle finger.
Approximately six weeks later, the patient had developed new ulcerations of the right index finger on the palmar-ventral side (5 days), and two ulcerations on the right middle finger on the distal digit, lateral thenar side (5 days) and the second digit on the dorsal side (2 weeks history). These ulcerations had developed after the patient had handled hot items. Dicloxacillin (500 mg twice daily) was given for 10 days. The patient was given TB4 wound healing preparation to be used twice daily to the ulcerations.

venous stasis ulceration = assay: Clinical course of Patient 1, shin ulcer; format: in vivo, human
Text: The injury started with a bruise on the left shin, but approximately seven weeks later the area started to get erythematous. The patient was sent by the general internist to the local hospital wound healing center, where the wound was debrided and Silvadene cream was used. However, the patient was not progressing well and grafting was considered. […] The underlying problem was venous stasis with the development of ulceration secondary to minor trauma. The ulcer was about 3.0 cm by 1.0 cm in size with a 1-cm rim of mild erythema. […] The patient was given a preparation containing TA1 to be used twice daily to the small 4 mm area.
The treatment with TA1 was continued for another week twice daily.
At this point, treatment was changed to a preparation containing TB4 to be applied twice daily to the entire ulcer.
After the entire ulcer had been treated for seven days with TB4 twice daily, it was noted that the size of the ulcer was starting to reduce. The wound center physician was concerned about infection (cellulitis around the ulcer). The patient was placed on oral antibiotics for 10 days. However, when the surrounding erythema was palpated, there was no tenderness. The wound appeared to be repairing and increasing the vascular flow to the ulcer base and surrounding skin. The patient felt that after treating the entire for seven days they improved by 40%. The patient was given more preparation containing TB4 for the next week. The internist felt that the patient should not undergo surgery for grafting due to cardiac problems in view of the improvement in the wound.

endothelial cells = assay: MTT (tetrazolium) endothelial cell proliferation assay; format: cell-based; conditions: 10 ng/ml; 4 hours and 24 hours
Experimental: The effects of TB4 and TA1 on endothelial cell proliferation were determined using a MTT (tetrazolium) assay. The results are shown in FIG. 2 for 4 hours and 24 hours and for three concentrations of these peptides, 10 ng/ml, 100 ng/ml, and 1000 ng/ml. […] At a concentration of 10 ng/ml, TB4 and TA1 maximally stimulated cell proliferation approximately 2-fold and 3-fold over that of the control, respectively.

[2] = tested on: healed wound erythema, melanin pigmentation; assay: Clinical effects of TB4 in vivo (erythema, pigmentation)
Text: There was not post-inflammatory erythema and hyperpigmentation. Frequently, the skin color was normal and not the expected deep red-purple with brown coloration that would take months to resolve on the leg.
Another effect seen is the reduction of melanin pigmentation on the areas of treatment with TB4.

NHVEC = assay: scratch wound closure assay; format: cell-based, human; conditions: 10 ng/ml, scratched confluent monolayer
Experimental: To examine the effects of TB4 and TA1 (10 ng/ml) on NHVEC migration, a scratch would closure assay was used.

[3] = tested on: normal human vascular endothelial cells (NHVEC); assay: Boyden chamber migration assay; format: cell-based; conditions: for cell migration over migration in the presence of media alone / migration response compared to positive controls VEGF, PDGF, FGF: 100 ng/ml; for concentration of maximal effect on migration: dose response
Experimental: The effects of TB4 and TA1 on endothelial cell migration were determined. To investigate the possibility that these peptides effect the migration of normal human vascular endothelial cells (NHVEC) in vitro, a Boyden chamber migration assay was performed.
In the experiments of Table 1 and FIG. 1, normal human […] endothelial cells are used at 5×10^4 cells per well. The wells are coated with 100 μg/ml […] Type IV.

[4] = Isoelectric point of peptide; format: physicochemical
chronic wounds = assay: Pilot study in humans with chronic wounds, collagen synthesis; format: in vivo, human; conditions: 20 volunteers, biopsies at baseline and two months, preliminary results
Experimental: A pilot study of TA1 and TA5 was performed in humans with 20 volunteers with chronic wounds. Skin biopsies were taken at the baseline and at two months, subjected to histological analysis, immunohistological analysis, and objective and subjective observation. Immunohistochemistry endpoints were epidermal differentiation, epidermal proliferation, and markers of inflammation and were assayed by using anti-CD3 monoclonal antibody.

[5] = tested on: full thickness punch wounds in rat skin; assay: Wound healing in vivo, full thickness punch wounds
Experimental: To study the effect of TA1 on wound healing in vivo, full thickness punch wounds were made in rat skin and treated with TA1 topically or by intraperitoneal injection with a seven-day study interval. For topical treatment, 5 μg of TA1 was applied in 50 μl saline on injury date and 48 hours post-injury. For intraperitoneal treatment, 60 μg of TA1 was administered in 300 μl saline on injury date and then every other day.

[6] = 10 μg/ml, 5×10^4 cells per well

Substance | maximal stimulation of cell proliferation over that of the control (endothelial cells) | migration of cells into the wounded area compared to media alone (NHVEC) | Cell Number per HPF, Chamber 1 ([3]; 0.1 μg/ml) [per HPF] | Cell Number per HPF, Chamber 2 ([3]; 0.1 μg/ml) [per HPF] | Cell Number per HPF, Chamber 3 ([3]; 0.1 μg/ml) [per HPF] | Cell Number per HPF, Mean ([3]; 0.1 μg/ml) [per HPF] | cell migration over migration in the presence of media alone [3] | migration response compared to positive controls VEGF, PDGF, FGF [3] | Cell Number per HPF, Chamber 1 ([3]; 0.5 μg/ml) [per HPF] | Cell Number per HPF, Chamber 2 ([3]; 0.5 μg/ml) [per HPF] | Cell Number per HPF, Chamber 3 ([3]; 0.5 μg/ml) [per HPF] | Cell Number per HPF, Mean ([3]; 0.5 μg/ml) [per HPF] | Cell Number per HPF, Chamber 1 ([3]; 1 μg/ml) [per HPF] | Cell Number per HPF, Chamber 2 ([3]; 1 μg/ml) [per HPF] | Cell Number per HPF, Chamber 3 ([3]; 1 μg/ml) [per HPF] | Cell Number per HPF, Mean ([3]; 1 μg/ml) [per HPF] | Cell Number per HPF, Chamber 1 ([3]; 5 μg/ml) [per HPF] | Cell Number per HPF, Chamber 2 ([3]; 5 μg/ml) [per HPF] | Cell Number per HPF, Chamber 3 ([3]; 5 μg/ml) [per HPF] | Cell Number per HPF, Mean ([3]; 5 μg/ml) [per HPF] | also measured
Ac-ANKGQAPGEAMKPSFLKEKKEVVERSKEEEGPAKMNLVIEMPKD (Ac-ANKGQAPGEAMKPSFLKEKKEVVERSKEEEGPAKMNLVIEMPKD) [TB4] | approximately 2 fold | significantly increased | 18 | 12 | 26 | 19 | significantly enhanced cell migration | heightened responses | 33 | 39 | 50 | 41 | 45 | 47 | 63 | 52 | 55 | 65 | 57 | 59 | ulcers cleared ([1]; another five days (12 days)): approximately 90%; improvement in the ulcerations ([1]; one week, twice daily, dicloxacillin also given): 70-80%; size of the ulcer (venous stasis ulceration; after another seven days (14 days), peripheral islands of healing): size of the ulcer was the same; improvement felt by the patient (venous stasis ulceration; after treating entire ulcer for seven days): 40%; status of ulcer (venous stasis ulceration; another seven days after FIG. 11): almost completely closed; status of ulcer (venous stasis ulceration; another two weeks, once daily, FIG. 12): no ulceration; clinical intensity of brown melasma, lentigines, post-inflammatory hyperpigmentation and ephelides ([2]; areas of treatment): definite reduction in the clinical intensity; effect on erythema of the healed wound ([2]; e.g. on the shin): reducing the erythema of the healed wound; erythema of poikiloderma vasculare of the neck secondary to chronic sun exposure ([2]; evaluation not continued): erythema was reducing; Cell Number per HPF, Chamber 2 ([3]; 10 μg/ml): 77 per HPF; Cell Number per HPF, Chamber 3 ([3]; 10 μg/ml): 66 per HPF; Cell Number per HPF, Mean ([3]; 10 μg/ml): 71 per HPF; Cell Number per HPF, Chamber 1 [3, 6]: 70 per HPF; concentration of maximal effect on migration [3]: 100 ng/mL
Ac-SDAAVDTSSEITTKDLKEKKEVVEEAEN [TA1] | ~3 fold | significantly increased | 38 | 45 | 33 | 39 | significantly enhanced cell migration | heightened responses | 52 | 53 | 57 | 54 | 64 | 69 | 43 | 59 | 35 | 64 | 72 | 57 | isoelectric point [4]: 4.1; status of ulcer (venous stasis ulceration; after 1 week, twice daily to the small 4 mm area): improvement was noted; deeper 4 mm area of the ulceration (venous stasis ulceration; after 2 weeks, twice daily): now level with the rest of the ulcer; stimulating collagen synthesis compared with tretinoin and vitamin C (chronic wounds): more effective in stimulating collagen synthesis than tretinoin or vitamin C; Cell Number per HPF, Chamber 2 ([3]; 10 μg/ml): 55 per HPF; Cell Number per HPF, Chamber 3 ([3]; 10 μg/ml): 66 per HPF; Cell Number per HPF, Mean ([3]; 10 μg/ml): 57 per HPF; Cell Number per HPF, Chamber 1 [3, 6]: 51 per HPF; concentration of maximal effect on migration [3]: 100 ng/mL; 4-day post-injury findings: capillary ingrowth and collagen deposition ([5]; 4-day post-injury): increased capillary ingrowth and collagen deposition; 4-day post-injury findings: reepithelialization, wound contraction, keratinocyte migration ([5]; 4-day post-injury): accelerated reepithelialization, wound contraction, and keratinocyte migration; decrease in wound width versus normal saline control ([5]; intraperitoneal 60 μg, p 0.0001 four-day, p 0.08 seven-day): 42%±9%; decrease in gap size versus normal saline (NS) control ([5]; intraperitoneal 60 μg, p 0.0007 for four-day and seven-day results): 42%±9%; decrease in wound width versus normal saline (NS) control ([5]; topical 5 μg, p 0.0001 four and seven-day results): 15%; decrease in gap size versus normal saline (NS) control ([5]; topical 5 μg, significant for seven-day results (p 0.04)): 18%±12%
KKLKKEENPLELKEKLKEKKNPLPSKEEEKASPFDKI -T-E-T-P-D-M-S [TA5] |  |  |  |  |  |  |  |  |  |  |  |  |  |  |  |  |  |  |  |  | new shallow ulceration resolved ([1]; one week, twice daily): approximately 70%; status of ulcer, left middle finger ([1]; one week, twice daily on ulcer base): dramatic improvement of the ulcer base; older, deeper ulceration healing ([1]; two weeks, twice daily): healing more rapidly than previously; stimulating collagen synthesis compared with tretinoin and vitamin C (chronic wounds): more effective in stimulating collagen synthesis than tretinoin or vitamin C
VEGF [reference compound] |  |  |  |  |  |  |  |  |  |  |  |  |  |  |  |  |  |  |  |  | Cell Number per HPF, Chamber 1 ([3]; 10 ng/ml, positive control): 88 per HPF; Cell Number per HPF, Chamber 2 ([3]; 10 ng/ml, positive control): 95 per HPF; Cell Number per HPF, Chamber 3 ([3]; 10 ng/ml, positive control): 97 per HPF; Cell Number per HPF, Mean ([3]; 10 ng/ml, positive control): 93 per HPF
